Measured values reported in patent US9856254B2, “Alkoxy substituted imidazoquinolines” (3M INNOVATIVE PROPERTIES COMPANY, priority 2003, dated 2018).
Structures can show the parent of a compound that is named as a salt.

Compared with CCCn1c(CCOC)nc2c(N)nc3cc(OCCCN)ccc3c21 [Example 394, 7-(3-Aminopropoxy)-2-(2-methoxyethyl)-1-propyl-1H-imidazo[4,5-c]quinolin-4-amine], CCCn1c(CCOC)nc2c(N)nc3cc(OC4CCOC4)ccc3c21 (stereo not shown) [Example 56, 2-(2-Methoxyethyl)-1-propyl-7-(tetrahydrofuran-3-yloxy)-1H-imidazo[4,5-c]quinolin-4-amine] is higher in melting point: 165 to 166.5 °C for the first, 192 to 194 °C for the second.

Compared with CCOCc1nc2c(N)nc3cc(OCCN)ccc3c2n1CC(O)CO (stereo not shown) (as salt: hydrochloride) [Example 373, 3-[4-Amino-7-(2-aminoethoxy)-2-(ethoxymethyl)-1H-imidazo[4,5-c]quinolin-1-yl]propane-1,2-diol dihydrochloride], CCCn1c(COCC)nc2c(N)nc3cc(OCCN4CCOCC4)ccc3c21 [Example 649, 2-(Ethoxymethyl)-7-(2-morpholin-4-ylethoxy)-1-propyl-1H-imidazo[4,5-c]quinolin-4-amine] is lower in melting point: 221 to 223 °C for the first, 191 to 192 °C for the second.

First: CCCCc1nc2c(N)nc3ccc(OCCC4CCN(C(=O)C(C)C)CC4)cc3c2n1C [Example 39, 1-{4-[2-(4-Amino-2-butyl-1-methyl-1H-imidazo[4,5-c]quinolin-8-yloxy)ethyl]piperidin-1-yl}-2-methylpropan-1-one]
Second: CCCCc1nc2c(N)nc3ccc(OCC(=O)N4CCCCC4)cc3c2n1C [Example 33, 2-Butyl-1-methyl-8-(2-oxo-2-piperidin-1-ylethoxy)-1H-imidazo[4,5-c]quinolin-4-amine]
The melting point of the first is lower: 189.4 to 192.6 °C for the first, 222.5 to 223.4 °C for the second.

Compared with CCCn1c(COCC)nc2c(N)nc3ccc(OCCN4CCCCCC4)cc3c21 [Example 571, 8-(2-Azepan-1-ylethoxy)-2-(ethoxymethyl)-1-propyl-1H-imidazo[4,5-c]quinolin-4-amine], CCCn1c(COCC)nc2c(N)nc3ccc(OCC4CCCO4)cc3c21 (stereo not shown) [Example 569, 2-(Ethoxymethyl)-1-propyl-8-(tetrahydrofuran-2-ylmethoxy)-1H-imidazo[4,5-c]quinolin-4-amine] is higher in melting point: 146 to 148 °C for the first, 178 to 179 °C for the second.

Compared with CCOCc1nc2c(N)nc3cc(OCCCCCCNC(=O)NC(C)C)ccc3c2n1CC(C)(C)NC(=O)NC(C)C [Example 369, N-(2-{4-Amino-2-(ethoxymethyl)-7-[(6-{[(isopropylamino)carbonyl]amino}hexyl)oxy]-1H-imidazo[4,5-c]quinolin-1-yl}-1,1-dimethylethyl)-N′-isopropylurea], CCOCc1nc2c(N)nc3cc(OCCCCCCNC(=S)NC(C)C)ccc3c2n1CC(C)(C)NC(C)=O [Example 368, N-(2-{4-Amino-2-(ethoxymethyl)-7-[(6-{[(isopropylamino)carbonothioyl]amino}hexyl)oxy]-1H-imidazo[4,5-c]quinolin-1-yl}-1,1-dimethylethyl)acetamide] is lower in melting point: 205 to 209 °C for the first, 110 to 120 °C for the second.

Compared with CCOCc1nc2c(N)nc3cc(OCCCN4CCCC4=O)ccc3c2n1CCCCNC(=O)OC(C)(C)C [Example 397, tert-Butyl 4-{4-amino-2-(ethoxymethyl)-7-[3-(2-oxopyrrolidin-1-yl)propoxy]-1H-imidazo[4,5-c]quinolin-1-yl}butylcarbamate], CCOCc1nc2c(N)nc3cc(OCCCN4CCCC4=O)ccc3c2n1CCCCN1CCCS1(=O)=O [Example 402, 1-(3-{[4-Amino-1-[4-(1,1-dioxidoisothiazolidin-2-yl)butyl]-2-(ethoxymethyl)-1H-imidazo[4,5-c]quinolin-7-yl]oxy}propyl)pyrrolidin-2-one] is higher in melting point: 134.5 to 136 °C for the first, 142 to 144 °C for the second.

First: CCOCc1nc2c(N)nc3cc(OCCN4CCOCC4)ccc3c2n1CC(C)(C)O [Example 647, 1-[4-Amino-2-(ethoxymethyl)-7-(2-morpholin-4-ylethoxy)-1H-imidazo[4,5-c]quinolin-1-yl]-2-methylpropan-2-ol]
Second: CCCn1c(COCC)nc2c(N)nc3ccc(OCC(=O)N4CCOCC4)cc3c21 [Example 566, 2-(Ethoxymethyl)-8-(2-morpholin-4-yl-2-oxoethoxy)-1-propyl-1H-imidazo[4,5-c]quinolin-4-amine]
The melting point of the first is lower: 161 to 163 °C for the first, 196 to 197 °C for the second.

First: CCCn1c(COCC)nc2c(N)nc3cc(OC4CCNCC4)ccc3c21 [Example 416, 2-(Ethoxymethyl)-7-(piperidin-4-yloxy)-1-propyl-1H-imidazo[4,5-c]quinolin-4-amine]
Second: CCCn1c(COCC)nc2c(N)nc3ccc(OC4CCNCC4)cc3c21 [Example 411, 2-(Ethoxymethyl)-8-(piperidin-4-yloxy)-1-propyl-1H-imidazo[4,5-c]quinolin-4-amine]
The melting point of the first is higher: 202 to 204 °C for the first, 176 to 178 °C for the second.

First: Cc1nc2c(N)nc3cc(OCCNC(=O)C(C)C)ccc3c2n1CC(C)C [Example 17, N-{2-[4-Amino-2-methyl-1-(2-methylpropyl)-1H-imidazo[4,5-c]quinolin-7-yloxy]ethyl}-2-methylpropanamide]
Second: Cc1nc2c(N)nc3cc(OCCC4CCN(C(=O)C5CCCC5)CC4)ccc3c2n1CC(C)C [Example 27, 7-{2-[1-(Cyclopentylcarbonyl)piperidin-4-yl]ethoxy}-2-methyl-1-(2-methylpropyl)-1H-imidazo[4,5-c]quinolin-4-amine]
The melting point of the first is lower: 205 to 206 °C for the first, 235.7 to 238.1 °C for the second.

First: CCc1nc2c(N)nc3cc(OCC(=O)N4CCOCC4)ccc3c2n1CCOc1ccccc1 [Example 53, 2-Ethyl-7-(2-morpholin-4-yl-2-oxoethoxy)-1-(2-phenoxyethyl)-1H-imidazo[4,5-c]quinolin-4-amine]
Second: CCc1nc2c(N)nc3cc(OS(C)(=O)=O)ccc3c2n1CCOc1ccccc1 (as salt: methanesulfonate) [Example 367, 4-Amino-2-ethyl-1-(2-phenoxyethyl)-1H-imidazo[4,5-c]quinolin-7-yl methanesulfonate]
The melting point of the first is lower: 208 to 209 °C for the first, 213 to 214.5 °C for the second.

Compared with CCc1nc2c(N)nc3cc(OCCNC(C)=O)ccc3c2n1CC1CCOCC1 [Example 652, N-(2-{[4-Amino-2-ethyl-1-(tetrahydro-2H-pyran-4-ylmethyl)-1H-imidazo[4,5-c]quinolin-7-yl]oxy}ethyl)acetamide], CCCn1c(COCC)nc2c(N)nc3ccc(OCCNC(=O)C4CCCO4)cc3c21 (stereo not shown) [Example 6, N-(2-{[4-Amino-2-(ethoxymethyl)-1-propyl-1H-imidazo[4,5-c]quinolin-8-yl]oxy}ethyl)tetrahydrofuran-2-carboxamide] is higher in melting point: 165 to 167 °C for the first, 202.5 to 204.5 °C for the second.

Compared with CCCn1c(COC)nc2c(N)nc3ccc(OCC(=O)N4CCOCC4)cc3c21 [Example 557, 2-(Methoxymethyl)-8-(2-morpholin-4-yl-2-oxoethoxy)-1-propyl-1H-imidazo[4,5-c]quinolin-4-amine], CCCn1c(COCC)nc2c(N)nc3ccc(OC4CCOC4)cc3c21 (stereo not shown) [Example 406, 2-(Ethoxymethyl)-1-propyl-8-(tetrahydrofuran-3-yloxy)-1H-imidazo[4,5-c]quinolin-4-amine] is lower in melting point: 201 to 204 °C for the first, 173 to 175 °C for the second.

Compared with CCCc1nc2c(N)nc3cc(OCCCN4CCCS4(=O)=O)ccc3c2n1CC(C)C [Example 13, 7-[3-(1,1-Dioxidoisothiazolidin-2-yl)propoxy]-1-(2-methylpropyl)-2-propyl-1H-imidazo[4,5-c]quinolin-4-amine], CCCc1nc2c(N)nc3cc(OCCCNC(=O)NS(=O)(=O)c4ccc(F)cc4)ccc3c2n1CC(C)C [Example 21, N-{[(3-{[4-Amino-1-(2-methylpropyl)-2-propyl-1H-imidazo[4,5-c]quinolin-7-yl]oxy}propyl)amino]carbonyl}-4-fluorobenzenesulfonamide] is higher in melting point: 142 to 144 °C for the first, 194 to 198 °C for the second.

First: CCCn1c(COCC)nc2c(N)nc3ccc(OC4CCN(S(C)(=O)=O)CC4)cc3c21 [Example 413, 2-(Ethoxymethyl)-8-{[1-(methylsulfonyl)piperidin-4-yl]oxy}-1-propyl-1H-imidazo[4,5-c]quinolin-4-amine]
Second: CCCn1c(COCC)nc2c(N)nc3cc(OC4CCN(S(C)(=O)=O)CC4)ccc3c21 [Example 561, 2-(Ethoxymethyl)-7-{[1-(methylsulfonyl)piperidin-4-yl]oxy}-1-propyl-1H-imidazo[4,5-c]quinolin-4-amine]
The melting point of the first is higher: 240 to 243.5 °C for the first, 215 to 217 °C for the second.

Compared with CCCn1c(CCO)nc2c(N)nc3cc(OCCCNC(=O)c4cccnc4)ccc3c21 [Example 396, N-(3-{[4-Amino-2-(2-hydroxyethyl)-1-propyl-1H-imidazo[4,5-c]quinolin-7-yl]oxy}propyl)nicotinamide], CCCn1c(CCOC)nc2c(N)nc3cc(OC4CCN(C(N)=O)CC4)ccc3c21 [Example 391, 4-{[4-Amino-2-(2-methoxyethyl)-1-propyl-1H-imidazo[4,5-c]quinolin-7-yl]oxy}piperidine-1-carboxamide] is higher in melting point: 183.5 to 184.5 °C for the first, 207 to 208.5 °C for the second.

First: CCCCc1nc2c(N)nc3ccc(OCC(=O)N(CCOC)CCOC)cc3c2n1C [Example 36, 2-[(4-Amino-2-butyl-1-methyl-1H-imidazo[4,5-c]quinolin-8-yl)oxy]-N,N-bis(2-methoxyethyl)acetamide]
Second: CCCn1c(COCC)nc2c(N)nc3ccc(OC4CCN(C(=O)NC(C)C)CC4)cc3c21 [Example 412, 4-{[4-Amino-2-(ethoxymethyl)-1-propyl-1H-imidazo[4,5-c]quinolin-8-yl]oxy}-N-isopropylpiperidine-1-carboxamide]
The melting point of the first is lower: 125 to 128 °C for the first, 236.5 to 239 °C for the second.

With CCOCc1nc2c(N)nc3cc(OCCCN4CCCC4=O)ccc3c2n1CCCCN (as salt: hydrochloride) [Example 398, 1-(3-{[4-Amino-1-(4-aminobutyl)-2-(ethoxymethyl)-1H-imidazo[4,5-c]quinolin-7-yl]oxy}propyl)pyrrolidin-2-one dihydrochloride] the melting point was over 250 °C.
With CCCCc1nc2c(N)nc3ccc(OCCC4CCN(C(=O)N5CCOCC5)CC4)cc3c2n1C [Example 42, 2-Butyl-1-methyl-8-{2-[1-(morpholin-4-ylcarbonyl)piperidin-4-yl]ethoxy}-1H-imidazo[4,5-c]quinolin-4-amine] the melting point was 152.8 °C (dec.).
